The values that follow come from patent US20230157996A1, “SMALL-MOLECULE INHIBITOR TARGETING EB VIRUS NUCLEAR ANTIGEN PROTEIN, PREPARATION METHOD AND USE THEREOF” (priority 2020, published 2023).

Bounds are passed on as bounds.

The subject of one experiment is C666-1 cells. Nature of the experiment: C666-1 cell viability single concentration (50 μM) inhibition rate (Resazurin). In kind it is cell-based. The following applies: 50 μM compound, 72 hours, C666-1 cells. A digest of the protocol:
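EBV-positive C666-1 cells (5×10^3/well), pre-cultured 24 h, were exposed to compound at 50 μmol/L final for 72 h at 37° C, 5% CO2, in duplicate. Viability by resazurin (3 h, ex 560/em 590 nm); inhibition rate computed relative to DMSO control and medium-only blank.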
Background: The colour change of resazurin is a common sign of viable cells or microbes.
As to `O=C([O-])c1cccc(N2CC(Oc3ccc([N+](=O)[O-])cc3)C2)c1-n1cccc1.[Na+]` [Example 116, Sodium 3-(3-(4-nitrophenoxy)azetidin-1-yl)-2-(1H-pyrrol-1-yl)benzoate], the “C666-1 cell viability single concentration (50 μM) inhibition rate, Ratio* (Inh %)” value is “+ (*Inh %: <10% +)”.

Staying with this experiment, now noted: Homo sapiens, C6661, 72 h, 50 μM compound, 72 hours, C666-1 cells; read-out: C666-1 cell viability single concentration (50 μM) inhibition rate, Ratio* (Inh %).
Turning to `COC(=O)c1cccc(N2CC(Oc3ccc(Oc4ccccc4)cc3)C2)c1-n1cccc1` [Example 111, Methyl 3-(3-(4-phenoxyphenoxy)azetidin-1-yl)-2-(1H-pyrrol-1-yl)benzoate], the inhibition at 50 µM was less than 10%. Still for that read-out and setting: the value for `O=C(O)c1cccc(N2CC(Oc3ccc(Oc4ccccc4)cc3)C2)c1-n1cccc1` [Example 112, 3-(3-(4-phenoxyphenoxy)azetidin-1-yl)-2-(1H-pyrrol-1-yl)benzoic acid] was less than 10%; that for `COC(=O)c1cccc(N2CC(Oc3ccc(COC4CCOCC4)cc3)C2)c1-n1cccc1` [Example 113, Methyl 2-(1H-pyrrol-1-yl)-3-(3-(4-(((tetrahydro-2H-pyran-4-yl)oxy)methyl)phenoxy)azetidin-1-yl)benzoate] was more than 50%; that for `COC(=O)c1cccc(N2CC(Oc3ccc(COc4ccccc4)cc3)C2)c1-n1cccc1` [Example 114, Methyl 3-(3-(4-(phenoxymethyl)phenoxy)azetidin-1-yl)-2-(1H-pyrrol-1-yl)benzoate] was 10 to 30%.

Consider `O=C(O)c1cccc(N2CC(Oc3ccc(COc4ccccc4)cc3)C2)c1-n1cccc1` [Example 115, 3-(3-(4-(phenoxymethyl)phenoxy)azetidin-1-yl)-2-(1H-pyrrol-1-yl)benzoic acid], for which the inhibition at 50 µM is less than 10%.

With `CCCNC(=S)Nc1ccc(OC2CN(c3cccc(C(=O)OC)c3-n3cccc3)C2)cc1` [Example 117, Methyl 3-(3-(4-(3-propylthioureido)phenoxy)azetidin-1-yl)-2-(1H-pyrrol-1-yl)benzoate], the inhibition at 50 µM was more than 50%.

`COC(=O)c1cccc(N2CC(Oc3ccc(NC(=S)Nc4ccc(C(F)(F)F)cc4)cc3)C2)c1-n1cccc1` [Example 118, Methyl 2-(1H-pyrrol-1-yl)-3-(3-(4-(3-(4-(trifluoromethyl)phenyl)thioureido)phenoxy)azetidin-1-yl)benzoate]: the inhibition at 50 µM was more than 50%. The same measure, in the same setting: under `COC(=O)c1cccc(N2CC(Oc3ccc(NC(=S)Nc4ccccc4OC)cc3)C2)c1-n1cccc1` [Example 119, Methyl 3-(3-(4-(3-(2-methoxyphenyl)thioureido)phenoxy)azetidin-1-yl)-2-(1H-pyrrol-1-yl)benzoate] stands 10 to 30%; under `COC(=O)c1cccc(N2CC(Oc3ccc(NC(C)=O)cc3)C2)c1-n1cccc1` [Example 120, Methyl 3-(3-(4-acetylaminophenoxy)azetidin-1-yl)-2-(1H-pyrrol-1-yl)benzoate], 10 to 30%; under `CC(=O)Nc1ccc(OC2CN(c3cccc(C(=O)O)c3-n3cccc3)C2)cc1` [Example 121, 3-(3-(4-acetylaminophenoxy)azetidin-1-yl)-2-(1H-pyrrol-1-yl)benzoic acid], less than 10%. Still for that read-out and setting: under `COC(=O)c1cccc(N2CC(Oc3ccc(NC(=O)c4cccs4)cc3)C2)c1-n1cccc1` [Example 122, Methyl 2-(1H-pyrrol-1-yl)-3-(3-(4-(thiophene-2-formamido)phenoxy)azetidin-1-yl)benzoate] stands 10 to 30%. On the same count and under the same terms, under `O=C(Nc1ccc(OC2CN(c3cccc(C(=O)O)c3-n3cccc3)C2)cc1)c1cccs1` [Example 123, 2-(1H-pyrrol-1-yl)-3-(3-(4-(thiophene-2-formamido)phenoxy)azetidin-1-yl)benzoic acid] stands less than 10%; under `COC(=O)c1cccc(N2CC(Oc3ccc(N(S(C)(=O)=O)S(C)(=O)=O)cc3)C2)c1-n1cccc1` [Example 124, Methyl 3-(3-(4-(N-(mesyl)methylsulfonamido)phenoxy)azetidin-1-yl)-2-(1H-pyrrol-1-yl)benzoate], 10 to 30%; under `CS(=O)(=O)Nc1ccc(OC2CN(c3cccc(C(=O)O)c3-n3cccc3)C2)cc1` [Example 125, 3-(3-(4-(methylsulfonamido)phenoxy)azetidin-1-yl)-2-(1H-pyrrol-1-yl)benzoic acid], less than 10%. For `COC(=O)c1cccc(N2CC(Oc3ccc(NS(=O)(=O)C4CC4)cc3)C2)c1-n1cccc1` [Example 126, Methyl 3-(3-(4-(cyclopropylsulfonamido)phenoxy)azetidin-1-yl)-2-(1H-pyrrol-1-yl)benzoate], the inhibition at 50 µM is more than 50%. Take `O=C(O)c1cccc(N2CC(Oc3ccc(NS(=O)(=O)C4CC4)cc3)C2)c1-n1cccc1` [Example 127, 3-(3-(4-(cyclopropylsulfonamido)phenoxy)azetidin-1-yl)-2-(1H-pyrrol-1-yl)benzoic acid]: the inhibition at 50 µM was less than 10%. The same measure, in the same setting: under `COC(=O)c1cccc(N2CC(Oc3ccc(NC(=O)Nc4ccc(Cl)cc4)cc3)C2)c1-n1cccc1` [Example 128, Methyl 3-(3-(4-(3-(4-chlorophenyl)ureido)phenoxy)azetidin-1-yl)-2-(1H-pyrrol-1-yl)benzoate] stands less than 10%.

For `O=C(Nc1ccc(Cl)cc1)Nc1ccc(OC2CN(c3cccc(C(=O)O)c3-n3cccc3)C2)cc1` [Example 129, 3-(3-(4-(3-(4-chlorophenyl)ureido)phenoxy)azetidin-1-yl)-2-(1H-pyrrol-1-yl)benzoic acid], the inhibition at 50 µM was less than 10%. With `COC(=O)c1cccc(N2CC(Oc3ccc(NC(=O)NC4CCCCC4)cc3)C2)c1-n1cccc1` [Example 130, Methyl 3-(3-(4-(3-cyclohexylureido)phenoxy)azetidin-1-yl)-2-(1H-pyrrol-1-yl)benzoate], the inhibition at 50 µM is less than 10%. On to `O=C(Nc1ccc(OC2CN(c3cccc(C(=O)O)c3-n3cccc3)C2)cc1)NC1CCCCC1` [Example 131, 3-(3-(4-(3-cyclohexylureido)phenoxy)azetidin-1-yl)-2-(1H-pyrrol-1-yl)benzoic acid], for which the inhibition at 50 µM is less than 10%. Consider `CCCCCCNC(=O)Nc1ccc(OC2CN(c3cccc(C(=O)OC)c3-n3cccc3)C2)cc1` [Example 132, Methyl 3-(3-(4-(3-hexylureido)phenoxy)azetidin-1-yl)-2-(1H-pyrrol-1-yl)benzoate], for which the inhibition at 50 µM is less than 10%.

For the compound `COC(=O)c1cccc(N2CC(Oc3ccc(NC(=O)Nc4cccc(Cl)c4)cc3)C2)c1-n1cccc1` [Example 133, Methyl 3-(3-(4-(3-(3-chlorophenyl)ureido)phenoxy)azetidin-1-yl)-2-(1H-pyrrol-1-yl)benzoate], the inhibition at 50 µM is more than 50%. Still for that read-out and setting: under `O=C(Nc1ccc(OC2CN(c3cccc(C(=O)O)c3-n3cccc3)C2)cc1)Nc1cccc(Cl)c1` [Example 134, 3-(3-(4-(3-(3-chlorophenyl)ureido)phenoxy)azetidin-1-yl)-2-(1H-pyrrol-1-yl)benzoic acid] stands 10 to 30%; under `COC(=O)c1cccc(N2CC(Oc3ccc(NC(=O)Nc4ccccc4Cl)cc3)C2)c1-n1cccc1` [Example 135, Methyl 3-(3-(4-(3-(2-chlorophenyl)ureido)phenoxy)azetidin-1-yl)-2-(1H-pyrrol-1-yl)benzoate], less than 10%; under `O=C(Nc1ccc(OC2CN(c3cccc(C(=O)O)c3-n3cccc3)C2)cc1)Nc1ccccc1Cl` [Example 136, 3-(3-(4-(3-(2-chlorophenyl)ureido)phenoxy)azetidin-1-yl)-2-(1H-pyrrol-1-yl)benzoic acid], less than 10%.

Consider `COC(=O)c1cccc(N2CC(Oc3ccc(NC(=O)Nc4cccc(C#N)c4)cc3)C2)c1-n1cccc1` [Example 137, Methyl 3-(3-(4-(3-(3-cyanophenyl)ureido)phenoxy)azetidin-1-yl)-2-(1H-pyrrol-1-yl)benzoate], for which the inhibition at 50 µM is more than 50%. Same read-out and setting: under `N#Cc1cccc(NC(=O)Nc2ccc(OC3CN(c4cccc(C(=O)O)c4-n4cccc4)C3)cc2)c1` [Example 138, 3-(3-(4-(3-(3-cyanophenyl)ureido)phenoxy)azetidin-1-yl)-2-(1H-pyrrol-1-yl)benzoic acid] stands less than 10%. The same measure, in the same setting: under `COC(=O)c1cccc(N2CC(OCc3ccc(OC)cc3)C2)c1-n1cccc1` [Example 139, Methyl 3-(3-((4-methoxybenzyl)oxy)azetidin-1-yl)-2-(1H-pyrrol-1-yl)benzoate] stands less than 10%; under `COC(=O)c1cccc(N2CC(OCc3cscn3)C2)c1-n1cccc1` [Example 140], 10 to 30%; under `O=C(O)c1cccc(N2CC(OCc3cscn3)C2)c1-n1cccc1` [Example 141], less than 10%.

With `COC(=O)c1cccc(N2CC(OCc3cnccn3)C2)c1-n1cccc1` [Example 142], the inhibition at 50 µM was less than 10%. On the same count and under the same terms, under `O=C(O)c1cccc(N2CC(OCc3cnccn3)C2)c1-n1cccc1` [Example 143] stands less than 10%; under `COC(=O)c1cccc(N2CC(OCC(=O)Nc3ccccc3)C2)c1-n1cccc1` [Example 144, Methyl 3-(3-(2-oxo-2-(phenylamino)ethoxy)azetidin-1-yl)-2-(1H-pyrrol-1-yl)benzoate], 10 to 30%. As for `O=C(COC1CN(c2cccc(C(=O)O)c2-n2cccc2)C1)Nc1ccccc1` [Example 145, 3-(3-(2-oxo-2-(phenylamino)ethoxy)azetidin-1-yl)-2-(1H-pyrrol-1-yl)benzoic acid], the inhibition at 50 µM was less than 10%. The same measure, in the same setting: the value for `O=C(O)c1cccc(N2CC(OC(=S)Nc3ccc(Cl)cc3)C2)c1-n1cccc1` [Example 148, 3-(3-(((4-chlorophenyl)thiocarbamoyl)oxy)azetidin-1-yl)-2-(1H-pyrrol-1-yl)benzoic acid] was less than 10%; that for `COC(=O)c1cccc(N2CC(OC(=O)NC3CCCCC3)C2)c1-n1cccc1` [Example 149, Methyl 3-(3-((cyclohexylcarbamoyl)oxy)azetidin-1-yl)-2-(1H-pyrrol-1-yl)benzoate] was 10 to 30%.
